Assay results from US8263762B2, “Alkoxy-carbonyl-amino-alkynyl-adenosine compounds and derivatives thereof as A2AR agonists” (Dogwood Pharmaceuticals, Inc., priority 2009, dated 2012).

Test system: Japanese white rabbits
Assay: Test for intraocular pressure reduction using Japanese white rabbits
Assay type: in vivo
Method: (1) Test for intraocular pressure reduction using Japanese white rabbits: In order to examine the usefulness of the present compound as a preventive or therapeutic agent for glaucoma or ocular hypertension, an intraocular pressure lowering effect when the present compound was administered to Japanese white rabbits (sex: male) was evaluated and studied. As the test compound, Compound A was used. […]
Administration method and measurement method: Just before any of the test liquids was administered, one drop of 0.4% oxybuprocaine hydrochloride eye drop was instilled into both eyes of each experimental animal to achieve local anesthesia, and the intraocular pressure was measured using an applanation tonometer. This intraocular pressure was determined as an initial intraocular pressure. […]
After the test liquid was administered, the intraocular pressure of both eyes of each experimental animal was measured at predetermined times (at 1, 2, 4 and 6 hours after administration). […]
Calculation of intraocular pressure reduction degree: The intraocular pressure reduction degree of each test compound administration group at each measurement time was calculated from the following calculation formula. Among the obtained intraocular pressure reduction degrees at respective measurement times, the maximum value was determined as a maximum intraocular pressure reduction degree. […]

With COC(=O)N(C)CC#Cc1nc(N)c2ncn([C@@H]3O[C@H](C(=O)NC4CC4)C(O)C3O)c2n1 (some centres unmarked) [Compound A] the “intraocular pressure lowering action” value (Japanese white rabbits, eye drop) was “exhibited an intraocular pressure lowering action” and the “Maximum intraocular pressure reduction degree” value (male Japanese white rabbits, 0.01% (w/v) eye drop, single dose into one eye, maximum of 1, 2, 4 and 6 hours, average of 5 cases) was 3.9 mmHg.
